From the supplement of paper PMC10307832

Key:
Assay in all cases: relative viability (nuclei count vs DMSO), 5 days (fraction); higher = more cells survive
201T = tested on: 201T
In short: (§1)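 One day after seeding in 1536-well plates, lung cancer cell lines were dosed by pin tool. Dosing was either single-drug or a fixed anchor-drug dose plus five library-drug doses (not always all listed) in √10 steps. After 5 days, nuclei were stained in one fix-and-stain step and counted on 4× images, and relative viability is the nuclei count of treated wells over that of vehicle wells, given as the median of duplicate plates.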

BEN = tested on: BEN
In short: as §1

EPLC-272H = tested on: EPLC-272H
In short: as §1

HCC-15 = tested on: HCC-15
In short: as §1

HCC-78 = tested on: HCC-78
In short: as §1

LCLC-97TM1 = tested on: LCLC-97TM1
In short: as §1

LU99A = tested on: LU99A
In short: as §1

NCI-H1355 = tested on: NCI-H1355
In short: as §1

NCI-H1395 = tested on: NCI-H1395
In short: as §1

NCI-H2009 = tested on: NCI-H2009
In short: as §1

NCI-H2085 = tested on: NCI-H2085
In short: as §1

NCI-H2126 = tested on: NCI-H2126
In short: as §1

NCI-H2228 = tested on: NCI-H2228
In short: as §1

NCI-H2342 = tested on: NCI-H2342
In short: as §1

NCI-H23 = tested on: NCI-H23
In short: as §1

NCI-H2405 = tested on: NCI-H2405
In short: as §1

NCI-H322M = tested on: NCI-H322M
In short: as §1

NCI-H460 = tested on: NCI-H460
In short: as §1

NCI-H647 = tested on: NCI-H647
In short: as §1

NCI-H650 = tested on: NCI-H650
In short: as §1

NCI-H661 = tested on: NCI-H661
In short: as §1

NCI-H838 = tested on: NCI-H838
In short: as §1

PC-14 = tested on: PC-14
In short: as §1

`CCNC(=O)c1noc(-c2cc(C(C)C)c(O)cc2O)c1-c1ccc(CN2CCOCC2)cc1` [Luminespib] + O=C(CCCCCCC(=O)Nc1ccccc1)NO [Vorinostat] (partner 1 µM) gave a relative viability (201T; first compound 0.002 µM) of 0.959, a relative viability (201T; first compound 0.006325 µM) of 0.872 and a relative viability (201T; first compound 0.02 µM) of 0.768. It also gave a relative viability (201T; first compound 0.06325 µM) of 0.913, a relative viability (201T; first compound 0.2 µM) of 0.324 and a relative viability (BEN; first compound 0.002 µM) of 0.608. It also gave a relative viability (BEN; first compound 0.006325 µM) of 0.546, a relative viability (BEN; first compound 0.02 µM) of 0.358 and a relative viability (BEN; first compound 0.06325 µM) of 0.525. For the same compound, the relative viability (BEN; first compound 0.2 µM) was 0.36, the relative viability (EPLC-272H; first compound 0.002 µM) was 0.402 and the relative viability (EPLC-272H; first compound 0.006325 µM) was 0.381. For the same compound, the relative viability (EPLC-272H; first compound 0.02 µM) was 0.505, the relative viability (EPLC-272H; first compound 0.06325 µM) was 0.0961 and the relative viability (EPLC-272H; first compound 0.2 µM) was 0.171. The relative viability (HCC-15; first compound 0.002 µM) was 0.792, the relative viability (HCC-15; first compound 0.006325 µM) was 0.805 and the relative viability (HCC-15; first compound 0.02 µM) was 0.942. For the same compound, the relative viability (HCC-15; first compound 0.06325 µM) was 0.583, the relative viability (HCC-15; first compound 0.2 µM) was 0.173 and the relative viability (HCC-78; first compound 0.002 µM) was 0.381. The relative viability (HCC-78; first compound 0.006325 µM) was 0.426, the relative viability (HCC-78; first compound 0.02 µM) was 0.283 and the relative viability (HCC-78; first compound 0.06325 µM) was 0.519. The relative viability (HCC-78; first compound 0.2 µM) was 0.356, the relative viability (LCLC-97TM1; first compound 0.002 µM) was 0.555 and the relative viability (LCLC-97TM1; first compound 0.006325 µM) was 0.545. The relative viability (LCLC-97TM1; first compound 0.06325 µM) was 0.0694, the relative viability (LCLC-97TM1; first compound 0.2 µM) was 0.0638 and the relative viability (LU99A; first compound 0.002 µM) was 0.58. For the same compound, the relative viability (LU99A; first compound 0.006325 µM) was 0.45, the relative viability (LU99A; first compound 0.02 µM) was 0.263 and the relative viability (LU99A; first compound 0.06325 µM) was 0.201. It also gave a relative viability (LU99A; first compound 0.2 µM) of 0.103, a relative viability (NCI-H1355; first compound 0.002 µM) of 0.581 and a relative viability (NCI-H1355; first compound 0.006325 µM) of 0.641. The relative viability (NCI-H1355; first compound 0.02 µM) was 0.38, the relative viability (NCI-H1355; first compound 0.06325 µM) was 0.398 and the relative viability (NCI-H1355; first compound 0.2 µM) was 0.12. For the same compound, the relative viability (NCI-H1395; first compound 0.002 µM) was 0.731, the relative viability (NCI-H1395; first compound 0.006325 µM) was 0.751 and the relative viability (NCI-H1395; first compound 0.02 µM) was 0.508. The relative viability (NCI-H1395; first compound 0.06325 µM) was 0.289, the relative viability (NCI-H1395; first compound 0.2 µM) was 0.289 and the relative viability (NCI-H2009; first compound 0.002 µM) was 0.765. It also gave a relative viability (NCI-H2009; first compound 0.006325 µM) of 0.594, a relative viability (NCI-H2009; first compound 0.02 µM) of 0.705 and a relative viability (NCI-H2009; first compound 0.06325 µM) of 0.429. It also gave a relative viability (NCI-H2009; first compound 0.2 µM) of 0.113, a relative viability (NCI-H2085; first compound 0.002 µM) of 0.797 and a relative viability (NCI-H2085; first compound 0.006325 µM) of 0.717. The relative viability (NCI-H2085; first compound 0.02 µM) was 0.553, the relative viability (NCI-H2085; first compound 0.06325 µM) was 0.367 and the relative viability (NCI-H2085; first compound 0.2 µM) was 0.31. It also gave a relative viability (NCI-H2126; first compound 0.002 µM) of 0.743, a relative viability (NCI-H2126; first compound 0.006325 µM) of 0.765 and a relative viability (NCI-H2126; first compound 0.06325 µM) of 0.468. It also gave a relative viability (NCI-H2126; first compound 0.2 µM) of 0.192, a relative viability (NCI-H2228; first compound 0.002 µM) of 0.873 and a relative viability (NCI-H2228; first compound 0.006325 µM) of 0.503. It also gave a relative viability (NCI-H2228; first compound 0.02 µM) of 0.54, a relative viability (NCI-H2228; first compound 0.06325 µM) of 0.143 and a relative viability (NCI-H2228; first compound 0.2 µM) of 0.15. The relative viability (NCI-H2342; first compound 0.002 µM) was 0.766, the relative viability (NCI-H2342; first compound 0.006325 µM) was 0.809 and the relative viability (NCI-H2342; first compound 0.02 µM) was 0.467. It also gave a relative viability (NCI-H2342; first compound 0.06325 µM) of 0.679, a relative viability (NCI-H2342; first compound 0.2 µM) of 0.416 and a relative viability (NCI-H23; first compound 0.002 µM) of 0.632. The relative viability (NCI-H23; first compound 0.006325 µM) was 0.481, the relative viability (NCI-H23; first compound 0.02 µM) was 0.315 and the relative viability (NCI-H23; first compound 0.06325 µM) was 0.0969. The relative viability (NCI-H23; first compound 0.2 µM) was 0.108, the relative viability (NCI-H2405; first compound 0.002 µM) was 1.11 and the relative viability (NCI-H2405; first compound 0.02 µM) was 0.884. The relative viability (NCI-H2405; first compound 0.06325 µM) was 0.194, the relative viability (NCI-H2405; first compound 0.2 µM) was 0.165 and the relative viability (NCI-H322M; first compound 0.002 µM) was 0.83. For the same compound, the relative viability (NCI-H322M; first compound 0.006325 µM) was 0.407, the relative viability (NCI-H322M; first compound 0.02 µM) was 0.736 and the relative viability (NCI-H322M; first compound 0.06325 µM) was 0.486. The relative viability (NCI-H322M; first compound 0.2 µM) was 0.417, the relative viability (NCI-H460; first compound 0.002 µM) was 0.775 and the relative viability (NCI-H460; first compound 0.006325 µM) was 0.68. It also gave a relative viability (NCI-H460; first compound 0.02 µM) of 0.237, a relative viability (NCI-H460; first compound 0.06325 µM) of 0.0162 and a relative viability (NCI-H460; first compound 0.2 µM) of 0.0131. It also gave a relative viability (NCI-H647; first compound 0.002 µM) of 0.584, a relative viability (NCI-H647; first compound 0.006325 µM) of 0.381 and a relative viability (NCI-H647; first compound 0.02 µM) of 0.646. The relative viability (NCI-H647; first compound 0.06325 µM) was 0.11, the relative viability (NCI-H647; first compound 0.2 µM) was 0.0869 and the relative viability (NCI-H650; first compound 0.002 µM) was 0.429. For the same compound, the relative viability (NCI-H650; first compound 0.006325 µM) was 0.392, the relative viability (NCI-H650; first compound 0.02 µM) was 0.298 and the relative viability (NCI-H650; first compound 0.06325 µM) was 0.158. It also gave a relative viability (NCI-H650; first compound 0.2 µM) of 0.103, a relative viability (NCI-H661; first compound 0.002 µM) of 0.777 and a relative viability (NCI-H661; first compound 0.006325 µM) of 0.803. It also gave a relative viability (NCI-H661; first compound 0.02 µM) of 0.759, a relative viability (NCI-H661; first compound 0.06325 µM) of 0.345 and a relative viability (NCI-H661; first compound 0.2 µM) of 0.306. The relative viability (NCI-H838; first compound 0.002 µM) was 0.778, the relative viability (NCI-H838; first compound 0.006325 µM) was 0.655 and the relative viability (NCI-H838; first compound 0.02 µM) was 0.785. It also gave a relative viability (NCI-H838; first compound 0.06325 µM) of 0.151, a relative viability (NCI-H838; first compound 0.2 µM) of 0.153 and a relative viability (PC-14; first compound 0.002 µM) of 0.787. For the same compound, the relative viability (PC-14; first compound 0.006325 µM) was 0.639, the relative viability (PC-14; first compound 0.02 µM) was 0.121 and the relative viability (PC-14; first compound 0.06325 µM) was 0.0465. The relative viability (PC-14; first compound 0.2 µM) was 0.0692.
